Results as given in ChEMBL document CHEMBL4402613, “Targeting ALK2: An Open Science Approach to Developing Therapeutics for the Treatment of Diffuse Intrinsic Pontine Glioma” (J Med Chem, 2020).
pIC50: −log10 of the molar value. Activity calls are given as the source filed them. The calls are words filed in the database; no cut-off is given here.

Key:
TGF-beta receptor type-1 = target: T1, TGF-beta receptor type-1 (Homo sapiens, UniProt P36897); format: cell-based, HEK293
T1 sequence (P36897 whole entry): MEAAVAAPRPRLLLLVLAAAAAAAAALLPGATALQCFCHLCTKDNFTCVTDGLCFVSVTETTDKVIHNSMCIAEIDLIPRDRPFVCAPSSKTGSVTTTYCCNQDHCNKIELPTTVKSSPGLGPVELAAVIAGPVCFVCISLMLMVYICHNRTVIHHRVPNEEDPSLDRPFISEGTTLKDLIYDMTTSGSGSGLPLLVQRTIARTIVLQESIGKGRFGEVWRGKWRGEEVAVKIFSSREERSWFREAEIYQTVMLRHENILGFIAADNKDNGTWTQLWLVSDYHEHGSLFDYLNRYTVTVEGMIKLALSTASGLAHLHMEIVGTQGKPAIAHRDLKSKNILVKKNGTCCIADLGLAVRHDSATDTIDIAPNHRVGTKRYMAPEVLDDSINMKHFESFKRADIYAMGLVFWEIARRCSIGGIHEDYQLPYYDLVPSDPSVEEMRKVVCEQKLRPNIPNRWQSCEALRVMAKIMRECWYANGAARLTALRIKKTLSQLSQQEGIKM
Description: Inhibition of ALK5 (unknown origin) expressed in HEK293 cells transfected with CAGA-luciferase and Renilla luciferase reporter measured after 24 hrs by dual luciferase reporter assay

[1] = target: T2, Serine/threonine-protein kinase A-Raf (Homo sapiens) (UniProt P10398); assay: Inhibition of ARAF (unknown origin) at 1 uM
T2 sequence (whole entry): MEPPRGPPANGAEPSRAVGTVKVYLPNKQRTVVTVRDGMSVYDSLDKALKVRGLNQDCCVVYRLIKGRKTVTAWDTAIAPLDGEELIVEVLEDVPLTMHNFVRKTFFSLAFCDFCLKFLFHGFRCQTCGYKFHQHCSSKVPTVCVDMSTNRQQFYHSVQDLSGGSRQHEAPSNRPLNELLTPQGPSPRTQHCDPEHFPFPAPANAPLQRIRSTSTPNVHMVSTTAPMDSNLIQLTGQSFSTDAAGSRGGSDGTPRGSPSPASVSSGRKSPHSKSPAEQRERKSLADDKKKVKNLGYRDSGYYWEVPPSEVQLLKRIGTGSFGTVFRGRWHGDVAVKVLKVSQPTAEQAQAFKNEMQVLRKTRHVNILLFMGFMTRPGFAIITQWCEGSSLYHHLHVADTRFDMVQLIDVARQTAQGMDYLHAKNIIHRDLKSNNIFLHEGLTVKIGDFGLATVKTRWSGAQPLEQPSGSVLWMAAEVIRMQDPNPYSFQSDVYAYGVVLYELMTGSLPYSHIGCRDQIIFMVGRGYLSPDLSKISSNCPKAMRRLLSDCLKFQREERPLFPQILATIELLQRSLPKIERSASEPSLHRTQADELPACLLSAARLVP

[2] = target: Activin receptor type-1-like (Homo sapiens) (UniProt P37023); assay: Inhibition of ALK1 (unknown origin) at 1 uM
Sequence of Activin receptor type-1-like (Homo sapiens) (P37023 whole entry): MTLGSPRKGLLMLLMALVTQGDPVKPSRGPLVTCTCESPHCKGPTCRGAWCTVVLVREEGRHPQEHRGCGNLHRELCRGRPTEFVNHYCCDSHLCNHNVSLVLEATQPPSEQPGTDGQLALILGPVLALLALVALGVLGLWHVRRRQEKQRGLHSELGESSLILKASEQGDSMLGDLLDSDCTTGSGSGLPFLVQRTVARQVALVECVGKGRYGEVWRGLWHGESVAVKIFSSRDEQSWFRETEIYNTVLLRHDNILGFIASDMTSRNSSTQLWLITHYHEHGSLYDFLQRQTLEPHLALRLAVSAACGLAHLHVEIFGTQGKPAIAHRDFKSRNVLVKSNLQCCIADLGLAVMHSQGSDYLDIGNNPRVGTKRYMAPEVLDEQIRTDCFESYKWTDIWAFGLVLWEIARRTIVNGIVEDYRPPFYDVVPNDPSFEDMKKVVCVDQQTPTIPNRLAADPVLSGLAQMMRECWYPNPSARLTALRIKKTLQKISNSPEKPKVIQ

Cytochrome P450 2B6 = target: T3, Cytochrome P450 2B6 (Homo sapiens, UniProt P20813)
T3 sequence (P20813 whole entry): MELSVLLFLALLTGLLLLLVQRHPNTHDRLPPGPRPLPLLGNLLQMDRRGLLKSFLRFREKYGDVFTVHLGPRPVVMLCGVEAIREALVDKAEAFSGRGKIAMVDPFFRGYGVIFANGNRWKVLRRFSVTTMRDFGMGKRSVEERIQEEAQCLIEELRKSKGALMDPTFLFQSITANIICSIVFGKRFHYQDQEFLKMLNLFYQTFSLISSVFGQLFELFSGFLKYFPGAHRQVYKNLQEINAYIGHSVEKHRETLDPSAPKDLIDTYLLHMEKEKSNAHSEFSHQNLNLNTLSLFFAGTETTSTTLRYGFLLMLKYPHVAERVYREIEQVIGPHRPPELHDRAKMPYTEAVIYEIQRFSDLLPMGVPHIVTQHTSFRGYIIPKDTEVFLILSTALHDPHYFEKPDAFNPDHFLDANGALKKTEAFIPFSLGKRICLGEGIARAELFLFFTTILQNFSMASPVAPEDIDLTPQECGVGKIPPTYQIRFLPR
Description: Inhibition of CYP2B6 in human liver microsomes using bupropion as substrate incubated for 40 mins in presence of NADPH by LC-MS/MS analysis

COc1cc(-c2cncc(-c3ccc(N4CCN(C)CC4)cc3)c2C)cc(F)c1C(N)=O
pIC50 (TGF-beta receptor type-1): 5.37
inhibition [1]: Active
inhibition [2]: Active
pIC50 (Cytochrome P450 2B6): < 4.30
